Data reported in ChEMBL document CHEMBL4257455, “Recent development of lipoxygenase inhibitors as anti-inflammatory agents” (Medchemcomm, 2018).
pIC50: −log10 of the molar value. Values belong to the molecule of their own block, whether it stands above or below them.

Key:
[1] = Inhibition of LOX (unknown origin); parameters: species or system Homo sapiens
[2] = target: T1, Arachidonate 5-lipoxygenase-activating protein (Homo sapiens, UniProt P20292); experiment: Inhibition of FLAP in human neutrophils assessed as decrease in LT biosynthesis preincubated for 15 mins followed by AA substrate addition by HPLC analysis
T1 sequence (P20292 whole entry): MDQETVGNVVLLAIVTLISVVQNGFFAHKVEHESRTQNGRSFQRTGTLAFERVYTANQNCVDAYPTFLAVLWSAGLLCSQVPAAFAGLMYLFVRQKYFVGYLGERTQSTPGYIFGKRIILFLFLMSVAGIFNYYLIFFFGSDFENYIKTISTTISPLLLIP

Mus musculus = experiment: Anti-inflammatory activity in mouse assessed as inhibition of xylene induced ear edema at 30 mg/kg relative to control; type: functional; parameters: scale not given: the % may be the effect or the level left
[3] = target: T2, Seed linoleate 13S-lipoxygenase-1 (Glycine max, UniProt P08170); experiment: Inhibition of soybean LOX-1 using linoleic acid as substrate preincubated for 120 secs with substrate followed by enzyme addition and measured every 30 secs for 7.5 mins by spectrophotometric analysis
T2 sequence (P08170 whole entry): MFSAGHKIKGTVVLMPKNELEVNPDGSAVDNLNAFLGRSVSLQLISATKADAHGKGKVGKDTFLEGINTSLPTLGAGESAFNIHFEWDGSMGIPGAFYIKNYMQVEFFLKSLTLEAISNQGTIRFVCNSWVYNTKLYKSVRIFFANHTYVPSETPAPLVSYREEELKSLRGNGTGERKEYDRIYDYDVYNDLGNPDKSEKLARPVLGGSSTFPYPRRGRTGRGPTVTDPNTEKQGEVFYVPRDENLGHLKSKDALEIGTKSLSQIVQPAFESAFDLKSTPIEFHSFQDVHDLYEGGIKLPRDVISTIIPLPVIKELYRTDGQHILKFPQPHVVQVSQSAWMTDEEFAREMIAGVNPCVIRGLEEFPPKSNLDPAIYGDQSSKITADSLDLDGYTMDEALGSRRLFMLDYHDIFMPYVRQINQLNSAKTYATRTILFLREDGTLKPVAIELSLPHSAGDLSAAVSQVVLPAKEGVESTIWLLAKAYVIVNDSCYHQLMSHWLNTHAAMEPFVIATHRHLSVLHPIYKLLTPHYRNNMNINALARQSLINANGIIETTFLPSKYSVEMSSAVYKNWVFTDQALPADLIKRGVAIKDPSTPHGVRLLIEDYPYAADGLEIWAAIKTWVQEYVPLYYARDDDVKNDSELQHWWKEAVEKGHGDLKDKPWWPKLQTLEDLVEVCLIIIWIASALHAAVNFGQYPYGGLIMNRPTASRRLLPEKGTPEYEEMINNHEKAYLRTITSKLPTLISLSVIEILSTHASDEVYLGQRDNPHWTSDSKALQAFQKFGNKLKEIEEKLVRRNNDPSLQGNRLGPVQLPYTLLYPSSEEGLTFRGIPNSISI

[4] = target: T3, Polyunsaturated fatty acid 5-lipoxygenase (Homo sapiens, UniProt P09917); experiment: Inhibition of 5-LOX (unknown origin)
T3 sequence (P09917 whole entry): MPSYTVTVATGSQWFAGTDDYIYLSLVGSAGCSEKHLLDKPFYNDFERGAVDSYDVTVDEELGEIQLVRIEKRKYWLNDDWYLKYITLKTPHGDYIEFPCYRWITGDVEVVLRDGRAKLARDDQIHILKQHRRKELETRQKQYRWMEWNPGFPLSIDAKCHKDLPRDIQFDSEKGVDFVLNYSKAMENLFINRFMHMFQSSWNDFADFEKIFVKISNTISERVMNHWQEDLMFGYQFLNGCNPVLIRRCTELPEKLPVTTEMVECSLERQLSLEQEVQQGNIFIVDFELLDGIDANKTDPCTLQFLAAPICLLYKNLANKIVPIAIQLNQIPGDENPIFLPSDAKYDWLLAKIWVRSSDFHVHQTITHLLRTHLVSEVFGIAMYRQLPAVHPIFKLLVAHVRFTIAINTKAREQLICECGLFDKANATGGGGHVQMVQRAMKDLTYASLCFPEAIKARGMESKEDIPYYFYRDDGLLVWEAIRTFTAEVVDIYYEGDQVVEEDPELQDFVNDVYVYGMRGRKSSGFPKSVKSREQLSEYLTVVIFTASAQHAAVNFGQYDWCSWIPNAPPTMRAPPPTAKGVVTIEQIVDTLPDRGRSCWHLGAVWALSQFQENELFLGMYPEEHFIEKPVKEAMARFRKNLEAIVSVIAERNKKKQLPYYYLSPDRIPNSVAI

[5] = Inhibition of soybean 5LOX using linoleic acid as substrate preincubated for 5 mins followed by substrate addition and measured after 20 mins by spectrophotometric analysis; parameters: species or system Glycine max
[6] = target: T4, Polyunsaturated fatty acid lipoxygenase ALOX15 (Homo sapiens) (UniProt P16050); experiment: Inhibition of 15-LOX (unknown origin) at 12.7 uM relative to control
T4 sequence (whole entry): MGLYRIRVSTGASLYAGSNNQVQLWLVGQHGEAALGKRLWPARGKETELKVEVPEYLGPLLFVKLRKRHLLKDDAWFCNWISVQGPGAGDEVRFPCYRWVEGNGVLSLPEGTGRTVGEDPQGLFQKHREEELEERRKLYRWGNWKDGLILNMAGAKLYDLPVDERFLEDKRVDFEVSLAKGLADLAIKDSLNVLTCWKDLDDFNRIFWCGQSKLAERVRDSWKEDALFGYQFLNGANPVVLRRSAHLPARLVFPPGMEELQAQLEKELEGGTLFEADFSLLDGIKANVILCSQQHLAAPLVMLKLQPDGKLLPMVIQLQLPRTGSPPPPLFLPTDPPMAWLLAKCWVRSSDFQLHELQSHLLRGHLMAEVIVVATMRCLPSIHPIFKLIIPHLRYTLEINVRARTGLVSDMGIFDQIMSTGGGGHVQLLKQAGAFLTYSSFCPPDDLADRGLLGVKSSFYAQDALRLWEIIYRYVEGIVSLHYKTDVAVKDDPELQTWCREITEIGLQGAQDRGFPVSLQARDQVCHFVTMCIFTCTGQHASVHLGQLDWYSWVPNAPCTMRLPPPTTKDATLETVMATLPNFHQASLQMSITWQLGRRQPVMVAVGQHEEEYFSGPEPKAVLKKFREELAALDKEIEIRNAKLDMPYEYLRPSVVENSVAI

[7] = target: T3, Polyunsaturated fatty acid 5-lipoxygenase; experiment: Inhibition of human N-terminal His-tagged 5-LOX expressed in Escherichia coli(Rosetta) by rhodamine 123 dye-based fluorescence assay
[8] = target: T5, Polyunsaturated fatty acid lipoxygenase ALOX12 (Homo sapiens, UniProt P18054); experiment: Inhibition of human N-terminal His-tagged 12-LOX expressed in Escherichia coli(Rosetta) by rhodamine 123 dye-based fluorescence assay
T5 sequence (P18054 whole entry): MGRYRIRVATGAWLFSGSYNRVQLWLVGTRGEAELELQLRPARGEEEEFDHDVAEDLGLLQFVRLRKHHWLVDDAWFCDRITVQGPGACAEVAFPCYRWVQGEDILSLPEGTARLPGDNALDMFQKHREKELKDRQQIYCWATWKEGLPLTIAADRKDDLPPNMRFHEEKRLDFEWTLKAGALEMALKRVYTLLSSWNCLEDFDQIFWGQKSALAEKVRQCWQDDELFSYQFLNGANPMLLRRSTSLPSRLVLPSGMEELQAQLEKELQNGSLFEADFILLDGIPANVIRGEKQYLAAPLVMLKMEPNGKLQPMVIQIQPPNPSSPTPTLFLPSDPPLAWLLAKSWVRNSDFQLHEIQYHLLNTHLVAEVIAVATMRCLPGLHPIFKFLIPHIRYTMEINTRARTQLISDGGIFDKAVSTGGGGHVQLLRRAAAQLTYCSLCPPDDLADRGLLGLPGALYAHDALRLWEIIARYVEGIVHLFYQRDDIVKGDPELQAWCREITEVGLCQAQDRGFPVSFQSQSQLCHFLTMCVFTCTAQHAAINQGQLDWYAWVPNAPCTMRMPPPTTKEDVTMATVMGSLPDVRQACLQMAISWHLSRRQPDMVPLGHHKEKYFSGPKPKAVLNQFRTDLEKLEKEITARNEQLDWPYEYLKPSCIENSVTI

[9] = target: T6, Polyunsaturated fatty acid 5-lipoxygenase (Rattus norvegicus, UniProt P12527); experiment: Inhibition of rat 5-LOX expressed in Sf21 insect cells preincubated for 4 mins followed by AA substrate addition and measured after 4 mins by FOX assay
T6 sequence (P12527 whole entry): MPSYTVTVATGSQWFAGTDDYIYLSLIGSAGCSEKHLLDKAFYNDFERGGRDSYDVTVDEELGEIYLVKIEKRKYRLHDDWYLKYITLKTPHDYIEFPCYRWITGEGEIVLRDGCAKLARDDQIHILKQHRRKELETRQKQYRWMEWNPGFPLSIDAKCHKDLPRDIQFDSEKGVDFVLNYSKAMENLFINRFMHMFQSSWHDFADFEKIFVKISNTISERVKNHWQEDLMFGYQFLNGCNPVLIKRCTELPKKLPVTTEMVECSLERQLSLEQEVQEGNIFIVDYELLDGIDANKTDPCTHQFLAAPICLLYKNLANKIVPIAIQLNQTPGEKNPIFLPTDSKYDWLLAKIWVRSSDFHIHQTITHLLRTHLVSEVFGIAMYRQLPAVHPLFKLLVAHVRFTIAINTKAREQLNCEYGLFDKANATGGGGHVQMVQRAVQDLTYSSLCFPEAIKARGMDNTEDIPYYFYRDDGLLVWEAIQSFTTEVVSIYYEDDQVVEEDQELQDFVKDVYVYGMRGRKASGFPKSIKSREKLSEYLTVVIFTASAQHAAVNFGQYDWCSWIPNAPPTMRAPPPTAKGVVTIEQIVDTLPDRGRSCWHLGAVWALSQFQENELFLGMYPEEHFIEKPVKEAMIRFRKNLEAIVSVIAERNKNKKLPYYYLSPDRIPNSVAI

[10] = Inhibition of soybean 15-LOX using linoleic acid as substrate preincubated for 15 mins followed by substrate addition and measured up to 6 mins by spectrophotometric analysis; parameters: species or system Glycine max
[11] = target: T1, Arachidonate 5-lipoxygenase-activating protein; experiment: Inhibition of FLAP in human leukocytes assessed as decrease in ionophore A23187-induced LT biosynthesis after 10 mins; type: cell-based
[12] = target: T7, Polyunsaturated fatty acid lipoxygenase ALOX15 (Homo sapiens, UniProt P16050); experiment: Inhibition of human N-terminal His-tagged 15-LOX expressed in Escherichia coli(Rosetta) by rhodamine 123 dye-based fluorescence assay
T7 sequence (P16050 whole entry): T4 sequence (whole entry)

pIC50 [5]: 5.68
Structure (SMILES): COc1ccc2nc(NCC(O)COc3ccc4c(C)cc(=O)oc4c3)sc2c1 (stereo not given)

inhibition [6]: 34.8%
Structure (SMILES): C/C(=C\COc1cc2oc(=O)ccc2cc1O)C/C=C/C(C)(C)O

pIC50 [7]: 5.78 | pIC50 [8]: 5.89
Structure (SMILES): CC(C)/C=C/c1c(O)cc(-c2cc3ccc(O)cc3o2)cc1O

pIC50 [10]: 4.99
Structure (SMILES): CCCCC(=O)c1c(O)cc(O)c(C/C=C(\C)CCC=C(C)C)c1O

pIC50 [5]: 5.55
Structure (SMILES): Cc1cc(=O)oc2cc(OCC(O)CNc3nc4ccc(Cl)cc4s3)ccc12 (stereo not given)

pIC50 [7]: 5.63 | pIC50 [12]: 5.92 | pIC50 [8]: 6.68
Structure (SMILES): CC(C)=CCc1c(O)cc(-c2cc3ccc(O)cc3o2)cc1O [MORACIN C]

Further lines, the molecule ahead of its results:

Structure (SMILES): O=C(O)CCCc1c[nH]c2ccccc12
pIC50 [1]: 4.75

Structure (SMILES): O=C(O)Cc1c[nH]c2ccccc12 [INDOLE-3-ACETIC ACID]
pIC50 [1]: 4.37

Structure (SMILES): Cc1noc(-c2ccc(OCc3ccc4ccccc4n3)cc2)c1-c1ccc(Cl)cc1
pIC50 [2]: 5.36

Structure (SMILES): CS(=O)(=O)c1ccc(-c2nc(SCCN(O)C(N)=O)nn2-c2ccc(Br)cc2)cc1
Activity (Mus musculus): 54.1% | pIC50 [1]: 6.07

Structure (SMILES): CC[C@H](C)/C=C(C)/C=C/C1=C(Br)C2=CC(=O)C(C)(O)C(=O)C2=CO1 (stereo not given in full)
pIC50 [3]: 5.49

Structure (SMILES): CS(=O)(=O)c1ccc(-n2nc(-c3ccc(-c4ccccc4)cc3)c3ccccc3c2=O)cc1
pIC50 [4]: 5.21

Structure (SMILES): Cc1ccc(-c2cc(C(F)(F)F)nn2-c2ccc(S(N)(=O)=O)cc2)cc1 [CELECOXIB]
Activity (Mus musculus): 46.7%

Structure (SMILES): Cc1cc(Nc2nc(-c3ccc(Cl)cc3)cs2)cc(C)c1O
pIC50 [9]: 6.90

Structure (SMILES): CC(C)c1ccc2c(c1)c(SC(C)(C)C)c(CC(C)(C)C(=O)O)n2Cc1ccc(Cl)cc1
pIC50 [11]: 6.99

Structure (SMILES): O=C(Cc1c[nH]c2ccccc12)NN=C(c1ccccc1)c1ccccc1
pIC50 [1]: 4.27
